Assay [1] addresses Fibroblast growth factor receptor 3 (Homo sapiens) (UniProt P22607). The experiment in a line: Inhibition of FGFR3(h) at 10.0 µM in the Eurofins Kinase panel. Conditions: Compound concentration 10.0 uM; call rule not given here.
The target in assay [2] is Sodium-dependent dopamine transporter (Homo sapiens) (UniProt Q01959). As to conditions: Compound concentration 10.0 uM.
Assay [3] has as its target Serine/threonine-protein kinase Nek1 (Homo sapiens) (UniProt Q96PY6). Briefly: Inhibition of NEK1(h) at 10.0 µM in the Eurofins Kinase panel. As to conditions: Compound concentration 10.0 uM.
Assay [4] concerns the target Tyrosine-protein kinase Fes/Fps (Homo sapiens) (UniProt P07332). Briefly: Inhibition of Fes(h) at 10.0 µM in the Eurofins Kinase panel. Conditions: Compound concentration 10.0 uM.
In assay [5] the target is Cyclin-dependent kinase 5/CDK5 activator 1 (Homo sapiens) (UniProt Q00535+Q15078). Briefly: Inhibition of CDK5/p25(h) at 10.0 µM in the Eurofins Kinase panel. The assay is classed as protein-complex assay. As to conditions: Compound concentration 10.0 uM.
Sequence of Cyclin-dependent kinase 5/CDK5 activator 1 (Homo sapiens) (Q00535 whole entry): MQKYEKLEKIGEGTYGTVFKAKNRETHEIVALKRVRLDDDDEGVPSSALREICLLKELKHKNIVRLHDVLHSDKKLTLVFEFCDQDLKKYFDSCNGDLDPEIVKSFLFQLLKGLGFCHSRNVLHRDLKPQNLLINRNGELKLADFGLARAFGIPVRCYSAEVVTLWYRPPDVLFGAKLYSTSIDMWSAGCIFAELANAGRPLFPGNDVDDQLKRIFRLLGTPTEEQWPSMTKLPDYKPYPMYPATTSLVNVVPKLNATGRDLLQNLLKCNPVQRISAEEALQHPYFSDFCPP
Sequence of Cyclin-dependent kinase 5/CDK5 activator 1 (Homo sapiens) (Q15078 99-307 partner limits assumed): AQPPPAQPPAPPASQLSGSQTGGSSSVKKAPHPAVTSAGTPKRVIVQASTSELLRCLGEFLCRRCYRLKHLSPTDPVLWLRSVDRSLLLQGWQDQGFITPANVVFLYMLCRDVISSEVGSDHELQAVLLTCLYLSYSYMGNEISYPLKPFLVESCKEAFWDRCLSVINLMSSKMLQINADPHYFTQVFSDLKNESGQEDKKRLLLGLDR
In assay [6] the target is Tyrosine-protein kinase JAK2 (Homo sapiens) (UniProt O60674). Briefly: Inhibition of JAK2(h) at 10.0 µM in the Eurofins Kinase panel. As to conditions: Compound concentration 10.0 uM.
The target of assay [7] is T1, Muscarinic acetylcholine receptor M1 (Homo sapiens) (UniProt P11229).
T1 sequence (whole entry): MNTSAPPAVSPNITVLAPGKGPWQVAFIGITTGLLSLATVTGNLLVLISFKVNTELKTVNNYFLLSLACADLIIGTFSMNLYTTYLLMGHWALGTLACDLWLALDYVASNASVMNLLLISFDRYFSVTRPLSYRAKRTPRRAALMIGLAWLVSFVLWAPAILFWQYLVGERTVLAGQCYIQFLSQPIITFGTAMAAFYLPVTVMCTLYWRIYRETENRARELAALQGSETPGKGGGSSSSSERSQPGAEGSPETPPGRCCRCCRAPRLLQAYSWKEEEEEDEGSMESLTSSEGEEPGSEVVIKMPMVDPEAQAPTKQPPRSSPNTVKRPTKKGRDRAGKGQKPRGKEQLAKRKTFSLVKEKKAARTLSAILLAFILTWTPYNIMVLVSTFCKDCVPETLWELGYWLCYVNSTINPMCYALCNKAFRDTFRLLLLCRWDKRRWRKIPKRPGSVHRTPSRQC
Conditions: Compound concentration 10.0 uM.

Assay [8] deals with Tyrosine-protein kinase Lck (Homo sapiens) (UniProt P06239). Briefly: Inhibition of Protein Tyrosine Kinase, LCK at 10 µM in the Eurofins-Panlabs enzyme assay (Eurofins_assay_176020). As to conditions: Compound concentration 10.0 uM.
Assay [9] deals with T2, Alpha-1D adrenergic receptor (Homo sapiens) (UniProt P25100).
T2 sequence (whole entry): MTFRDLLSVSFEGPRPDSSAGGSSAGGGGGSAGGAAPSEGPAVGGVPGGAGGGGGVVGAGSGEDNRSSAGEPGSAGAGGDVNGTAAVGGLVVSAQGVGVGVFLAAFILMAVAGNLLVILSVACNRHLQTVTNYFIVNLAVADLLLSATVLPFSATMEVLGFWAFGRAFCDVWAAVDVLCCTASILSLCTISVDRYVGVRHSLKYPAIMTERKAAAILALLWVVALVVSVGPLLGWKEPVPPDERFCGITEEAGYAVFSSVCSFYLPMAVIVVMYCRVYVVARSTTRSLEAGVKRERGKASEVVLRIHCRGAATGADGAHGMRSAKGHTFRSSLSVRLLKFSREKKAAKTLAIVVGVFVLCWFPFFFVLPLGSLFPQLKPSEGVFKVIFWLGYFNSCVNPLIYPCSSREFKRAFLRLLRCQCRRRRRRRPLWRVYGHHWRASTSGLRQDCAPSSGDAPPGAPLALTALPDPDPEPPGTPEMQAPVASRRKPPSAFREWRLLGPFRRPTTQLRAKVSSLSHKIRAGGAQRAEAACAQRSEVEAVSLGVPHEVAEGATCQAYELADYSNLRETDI
Briefly: Inhibition of Adrenergic alpha1D at 10 µM in the Eurofins-Panlabs radioligand binding assay (Eurofins_assay_203400). Conditions: Compound concentration 10.0 uM.

Assay [10] concerns the target Epidermal growth factor receptor (Homo sapiens) (UniProt P00533). The experiment in a line: Inhibition of Protein Tyrosine Kinase, EGF Receptor at 10 µM in the Eurofins-Panlabs enzyme assay (Eurofins_assay_170020). The arrangement: substrate with concentration. As to conditions: Compound concentration 10.0 uM.
A further assay is filed under the species Rattus norvegicus. The experiment in a line: Inhibition of Thyroid Hormone at 10 µM in the Eurofins-Panlabs radioligand binding assay (Eurofins_assay_285900). The assay is classed as protein assay. As to conditions: Compound concentration 10.0 uM.
For assay [11], the target named is Mitogen-activated protein kinase kinase kinase 20 (Homo sapiens) (UniProt Q9NYL2). Briefly: Inhibition of ZAK(h) at 10.0 µM in the Eurofins Kinase panel. As to conditions: Compound concentration 10.0 uM.
Sequence of Mitogen-activated protein kinase kinase kinase 20 (Homo sapiens) (Q9NYL2 2-800 limits assumed): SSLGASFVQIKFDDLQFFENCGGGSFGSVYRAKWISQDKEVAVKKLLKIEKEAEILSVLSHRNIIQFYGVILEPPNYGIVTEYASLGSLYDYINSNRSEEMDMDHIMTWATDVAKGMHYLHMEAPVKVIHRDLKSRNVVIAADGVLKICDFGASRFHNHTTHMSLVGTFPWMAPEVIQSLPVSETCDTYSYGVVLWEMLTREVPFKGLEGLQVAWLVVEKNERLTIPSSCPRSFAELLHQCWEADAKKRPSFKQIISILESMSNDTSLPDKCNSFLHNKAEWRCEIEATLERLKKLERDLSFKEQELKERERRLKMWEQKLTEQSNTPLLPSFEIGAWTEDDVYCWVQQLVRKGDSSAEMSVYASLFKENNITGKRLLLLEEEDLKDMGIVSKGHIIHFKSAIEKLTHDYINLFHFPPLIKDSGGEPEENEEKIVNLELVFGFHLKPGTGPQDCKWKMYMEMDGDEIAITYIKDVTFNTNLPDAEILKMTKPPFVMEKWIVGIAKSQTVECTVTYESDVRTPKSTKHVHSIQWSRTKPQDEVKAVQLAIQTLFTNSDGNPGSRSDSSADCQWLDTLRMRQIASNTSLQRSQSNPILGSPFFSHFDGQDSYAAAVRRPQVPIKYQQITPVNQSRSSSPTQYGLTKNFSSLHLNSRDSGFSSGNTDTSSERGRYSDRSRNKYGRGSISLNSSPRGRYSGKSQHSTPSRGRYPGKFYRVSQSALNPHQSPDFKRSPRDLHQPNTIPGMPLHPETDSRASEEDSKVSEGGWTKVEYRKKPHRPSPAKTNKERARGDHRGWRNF
In assay [12] the target is Neuropeptide Y receptor type 2 (Homo sapiens) (UniProt P49146). Briefly: Inhibition of Neuropeptide Y Y2 at 10 µM in the Eurofins-Panlabs radioligand binding assay (Eurofins_assay_257110). As to conditions: Compound concentration 10.0 uM.
Assay [13] can be described thus: Inhibition of Atrial Natriuretic Factor (ANF) at 10 µM in the Eurofins-Panlabs radioligand binding assay (Eurofins_assay_211000). As to conditions: Cavia porcellus; Compound concentration 10 uM; Assay protocol publication PMID: 2408776; Detection method Radioligand Binding; Incubation temperature 4 °C; Incubation time 60 min; Ligand Bmax 0.013 pM/ mg protein; Ligand Kd 0.14 nM; Ligand [125I] ANF (rat); Ligand concentration 0.016 nM; Ligand specific binding 78 %; Non-specific ligand with concentration 0.1 µM ANF (rat); Reference compound ANF (rat); Source of ….

The target of assay [14] is Carbonic anhydrase 2 (Homo sapiens) (UniProt P00918). The experiment in a line: Inhibition of Carbonic Anhydrase II at compound concentration of 10.0 uM in the Eurofins-Panlabs enzyme assay (Eurofins_assay_112020). Further details: substrate with concentration. As to conditions: Compound concentration 10.0 uM.
For assay [15], the target named is cAMP-dependent protein kinase catalytic subunit beta (Homo sapiens) (UniProt P22694). The experiment in a line: Inhibition of PKACbeta(h) at 10.0 µM in the Eurofins Kinase panel. As to conditions: Compound concentration 10.0 uM.
Assay [16] addresses Polyunsaturated fatty acid lipoxygenase ALOX15 (Homo sapiens) (UniProt P16050). The experiment in a line: Inhibition of Lipoxygenase 15-LO at 10 µM in the Eurofins-Panlabs enzyme assay (Eurofins_assay_138000). Conditions: Oryctolagus cuniculus; Compound concentration 10.0 uM.
Assay [17] concerns the target Purinergic P2Y (Rattus norvegicus) (UniProt O35811+Q9EPX4+P49651+Q63371+P41232+O35881+Q6GUG4). Conditions: Compound concentration 10.0 uM.
Assay [18] has as its target Acetylcholinesterase (Homo sapiens) (UniProt P22303). As to conditions: Compound concentration 10.0 uM.
Assay [19] deals with 5-hydroxytryptamine receptor 6 (Homo sapiens) (UniProt P50406). The experiment in a line: Inhibition of Serotonin (5-Hydroxytryptamine) 5-HT6 at 10 µM in the Eurofins-Panlabs radioligand binding assay (Eurofins_assay_272200). As to conditions: Compound concentration 10.0 uM.
Sequence of 5-hydroxytryptamine receptor 6 (Homo sapiens) (P50406 whole entry): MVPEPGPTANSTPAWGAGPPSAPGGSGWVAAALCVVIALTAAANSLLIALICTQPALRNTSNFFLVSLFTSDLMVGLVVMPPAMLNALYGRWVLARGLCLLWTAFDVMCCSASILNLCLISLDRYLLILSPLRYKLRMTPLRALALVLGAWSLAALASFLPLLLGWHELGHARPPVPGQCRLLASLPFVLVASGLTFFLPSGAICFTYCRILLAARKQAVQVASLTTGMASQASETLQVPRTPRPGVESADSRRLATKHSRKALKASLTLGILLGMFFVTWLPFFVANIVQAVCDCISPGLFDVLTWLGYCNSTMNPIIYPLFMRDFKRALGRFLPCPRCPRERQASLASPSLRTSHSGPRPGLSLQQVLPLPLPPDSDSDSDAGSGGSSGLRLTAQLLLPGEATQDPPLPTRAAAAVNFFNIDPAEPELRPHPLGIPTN
The target in assay [20] is Serine/threonine-protein kinase Nek4 (Homo sapiens) (UniProt P51957). Briefly: Inhibition of NEK4(h) at 10.0 µM in the Eurofins Kinase panel. Conditions: Compound concentration 10.0 uM.
Sequence of Serine/threonine-protein kinase Nek4 (Homo sapiens) (P51957 whole entry, looked up): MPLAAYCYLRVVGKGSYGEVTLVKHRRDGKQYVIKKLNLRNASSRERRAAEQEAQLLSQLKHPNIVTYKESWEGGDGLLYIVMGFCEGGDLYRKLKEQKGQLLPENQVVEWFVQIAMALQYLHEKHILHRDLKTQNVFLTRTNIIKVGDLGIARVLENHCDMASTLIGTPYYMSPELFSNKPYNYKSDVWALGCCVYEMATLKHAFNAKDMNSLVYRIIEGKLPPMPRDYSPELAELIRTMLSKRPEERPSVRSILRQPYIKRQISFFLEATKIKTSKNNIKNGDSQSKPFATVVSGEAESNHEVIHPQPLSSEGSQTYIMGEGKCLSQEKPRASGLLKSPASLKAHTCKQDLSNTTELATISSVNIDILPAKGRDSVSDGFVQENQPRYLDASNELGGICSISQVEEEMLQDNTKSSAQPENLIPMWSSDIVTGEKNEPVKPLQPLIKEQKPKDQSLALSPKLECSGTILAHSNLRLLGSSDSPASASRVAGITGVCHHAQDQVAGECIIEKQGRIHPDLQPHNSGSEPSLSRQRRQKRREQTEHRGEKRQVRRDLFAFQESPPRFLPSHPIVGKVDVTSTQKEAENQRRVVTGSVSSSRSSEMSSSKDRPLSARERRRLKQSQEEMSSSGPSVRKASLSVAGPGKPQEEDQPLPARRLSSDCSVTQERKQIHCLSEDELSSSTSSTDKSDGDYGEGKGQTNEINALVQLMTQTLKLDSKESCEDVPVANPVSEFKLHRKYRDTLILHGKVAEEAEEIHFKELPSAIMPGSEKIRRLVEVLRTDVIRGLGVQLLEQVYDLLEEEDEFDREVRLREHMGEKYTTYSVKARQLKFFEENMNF
In assay [21] the target is Beta-2 adrenergic receptor (Homo sapiens) (UniProt P07550). Conditions: Compound concentration 10.0 uM.
Sequence of Beta-2 adrenergic receptor (Homo sapiens) (P07550 whole entry, looked up): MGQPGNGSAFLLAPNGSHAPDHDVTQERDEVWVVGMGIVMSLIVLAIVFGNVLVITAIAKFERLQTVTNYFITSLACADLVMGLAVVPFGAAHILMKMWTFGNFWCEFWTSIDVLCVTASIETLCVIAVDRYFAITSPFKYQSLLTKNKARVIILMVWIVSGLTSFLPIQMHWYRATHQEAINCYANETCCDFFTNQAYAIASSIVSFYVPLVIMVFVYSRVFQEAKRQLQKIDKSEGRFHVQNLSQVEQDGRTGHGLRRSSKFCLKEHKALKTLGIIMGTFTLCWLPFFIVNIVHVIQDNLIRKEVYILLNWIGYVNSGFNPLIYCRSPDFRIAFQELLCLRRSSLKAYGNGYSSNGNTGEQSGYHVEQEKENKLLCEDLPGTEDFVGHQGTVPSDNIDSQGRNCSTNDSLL
The target of assay [22] is Serine/threonine-protein kinase BRSK2 (Homo sapiens) (UniProt Q8IWQ3). Briefly: Inhibition of BrSK2(h) at 10.0 µM in the Eurofins Kinase panel. As to conditions: Compound concentration 10.0 uM.
Sequence of Serine/threonine-protein kinase BRSK2 (Homo sapiens) (Q8IWQ3 whole entry): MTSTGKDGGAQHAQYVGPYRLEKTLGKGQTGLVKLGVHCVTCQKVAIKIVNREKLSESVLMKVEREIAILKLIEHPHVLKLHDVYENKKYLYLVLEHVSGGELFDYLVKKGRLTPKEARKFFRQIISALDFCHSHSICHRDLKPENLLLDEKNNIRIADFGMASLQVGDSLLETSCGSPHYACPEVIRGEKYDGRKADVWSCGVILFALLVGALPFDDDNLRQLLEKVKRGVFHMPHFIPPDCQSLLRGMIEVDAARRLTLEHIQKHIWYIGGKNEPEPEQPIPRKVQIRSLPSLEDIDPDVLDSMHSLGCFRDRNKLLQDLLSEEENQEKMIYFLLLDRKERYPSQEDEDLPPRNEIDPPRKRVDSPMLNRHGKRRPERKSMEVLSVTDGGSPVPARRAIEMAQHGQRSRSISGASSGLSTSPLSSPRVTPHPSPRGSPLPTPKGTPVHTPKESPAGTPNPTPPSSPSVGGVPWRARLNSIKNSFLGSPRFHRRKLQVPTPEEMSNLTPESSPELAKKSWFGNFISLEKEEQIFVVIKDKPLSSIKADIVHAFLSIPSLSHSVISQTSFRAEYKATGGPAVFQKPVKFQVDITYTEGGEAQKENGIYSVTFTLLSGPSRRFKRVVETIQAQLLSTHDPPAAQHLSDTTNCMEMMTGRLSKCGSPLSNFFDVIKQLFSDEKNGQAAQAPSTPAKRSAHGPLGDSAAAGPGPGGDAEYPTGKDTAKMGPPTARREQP

Sequence of Sodium-dependent dopamine transporter (Homo sapiens) (Q01959 whole entry): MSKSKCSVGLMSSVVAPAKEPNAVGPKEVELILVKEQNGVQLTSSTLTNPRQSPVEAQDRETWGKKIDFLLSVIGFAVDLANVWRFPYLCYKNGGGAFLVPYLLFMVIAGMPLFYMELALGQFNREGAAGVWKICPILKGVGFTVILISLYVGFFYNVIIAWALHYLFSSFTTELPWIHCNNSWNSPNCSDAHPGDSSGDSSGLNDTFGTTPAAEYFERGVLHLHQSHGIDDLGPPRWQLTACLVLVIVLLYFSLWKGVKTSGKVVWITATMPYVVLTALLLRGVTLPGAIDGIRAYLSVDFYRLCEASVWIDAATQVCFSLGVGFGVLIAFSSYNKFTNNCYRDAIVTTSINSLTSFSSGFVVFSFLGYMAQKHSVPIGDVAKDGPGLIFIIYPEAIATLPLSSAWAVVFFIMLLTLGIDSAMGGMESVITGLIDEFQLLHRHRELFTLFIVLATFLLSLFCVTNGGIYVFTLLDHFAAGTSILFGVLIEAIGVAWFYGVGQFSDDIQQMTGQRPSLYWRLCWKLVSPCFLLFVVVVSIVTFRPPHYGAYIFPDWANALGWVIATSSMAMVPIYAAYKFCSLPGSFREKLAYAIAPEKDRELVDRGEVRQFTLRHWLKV
Sequence of Acetylcholinesterase (Homo sapiens) (P22303 whole entry): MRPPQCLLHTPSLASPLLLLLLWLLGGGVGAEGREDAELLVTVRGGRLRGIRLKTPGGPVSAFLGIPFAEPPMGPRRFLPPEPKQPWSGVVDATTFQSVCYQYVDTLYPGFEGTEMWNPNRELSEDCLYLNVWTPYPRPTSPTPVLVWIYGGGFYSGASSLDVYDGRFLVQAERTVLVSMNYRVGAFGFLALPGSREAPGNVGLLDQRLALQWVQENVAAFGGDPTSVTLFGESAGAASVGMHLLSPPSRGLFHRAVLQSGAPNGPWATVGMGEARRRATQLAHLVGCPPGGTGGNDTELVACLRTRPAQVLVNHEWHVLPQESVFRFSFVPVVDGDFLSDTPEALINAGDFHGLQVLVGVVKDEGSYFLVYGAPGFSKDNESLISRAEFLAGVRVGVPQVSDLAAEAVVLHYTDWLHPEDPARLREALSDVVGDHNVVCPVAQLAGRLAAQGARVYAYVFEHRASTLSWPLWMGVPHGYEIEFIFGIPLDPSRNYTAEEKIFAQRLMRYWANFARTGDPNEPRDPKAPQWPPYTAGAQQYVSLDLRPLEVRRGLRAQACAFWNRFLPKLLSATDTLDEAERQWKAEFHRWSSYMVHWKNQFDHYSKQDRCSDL

`O=c1n(Cc2cncn2-c2cccc(Cl)c2)nc(-c2ccc(Cl)cc2)n1C[C@H](O)C(F)(F)F`: the inhibition is -0.44% in assay [1]; 4.92% in assay [2]; 5.54% in assay [3]; -7.81% in assay [4]; 2.09% in assay [5]; -4.95% in [6].

Turning to `C[C@H](O)c1nc(Cn2nc(-c3ccc(Cl)cc3)n(C[C@H](O)C(F)(F)F)c2=O)nn1-c1cccc(Cl)c1` [PECAVAPTAN], the inhibition was 4.34% in [7]; -9% in assay [8]; 1% in assay [9]; -6% in assay [10]; 6% in the assay listed under Rattus norvegicus; -4.87% in [11]. Besides, the inhibition in assay [12] was 6%; in [14], -4%; in [15], -5.07%; in assay [16], 4%; in [17] it was 0%; in assay [18] it was 2%. The inhibition in assay [19] was 4%; in [20], 13.1%; in assay [21] it was -4.34%; in [22], -4.83%. In [13], the inhibition at 10 µM is 1% (not active).
